Reference: PubChem BioAssay AID1919000 (Molecular Pharmacology Branch, DTP, NCI, 2023)
“And” between values parts separate entries of the source, which are not always exact repeats. Equal entries are not always repeated.

Test system: 653999-131-R-J2-PDC complex spheroids, growth % test/control
Experiment: Anticancer human tumor 653999-131-R-J2-PDC patient-derived lung adenocarcinoma cell line growth inhibition [AhR]
Conditions: for viability, T/C: stronger effect = lower value
How it was run: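 Spheroids combined tumor cells with HUVEC endothelial cells and human MSCs as stroma. AhR antagonists were paired with standard or investigational drugs, each dosed in half-log steps down from near clinical Cmax, or from 10 microM where Cmax was unknown.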

[1] = curve of first compound, second compound 0.1 µM
[2] = curve of first compound, second compound 0.316 µM
[3] = curve of first compound, second compound 1 µM
[4] = curve of first compound, second compound 3.16 µM
[5] = curve of first compound, second compound 10 µM
[6] = second compound 0.1 µM, first compound 0.0316 µM
[7] = second compound 0.1 µM, first compound 0.1 µM
[8] = second compound 0.316 µM, first compound 0.0316 µM
[9] = second compound 0.316 µM, first compound 0.1 µM
[10] = second compound 1 µM, first compound 0.0316 µM
[11] = second compound 1 µM, first compound 0.1 µM
[12] = second compound 3.16 µM, first compound 0.0316 µM
[13] = second compound 3.16 µM, first compound 0.1 µM
[14] = second compound 10 µM, first compound 0.0316 µM
[15] = second compound 10 µM, first compound 0.1 µM
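Also: spheroids exposed to agents for seven days.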
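For viability, T/C in this document: 100% = DMSO vehicle control viability.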

Cn1ncnc1C1c2n[nH]c(=O)c3cc(F)cc(c23)NC1c1ccc(F)cc1 (centres undefined)
viability, T/C (compound 0.000316 µM): 94.2% and 105% and 97.9%
viability, T/C (compound 0.001 µM): 106% and 102% and 107%
viability, T/C (compound 0.00316 µM): 102% and 103% and 116%
viability, T/C (compound 0.01 µM): 91.6% and 96% and 101%
viability, T/C (compound 0.0316 µM): 94.2% and 95.2% and 105%
viability, T/C (compound 0.1 µM): 95.5% and 91.8% and 103%
IC50 (curve of compound): > 100 nM

Nc1ncn(C2CC(O)C(CO)O2)c(=O)n1 (centres undefined)
viability, T/C (compound 0.00316 µM): 105% and 95.5% and 110%
viability, T/C (compound 0.01 µM): 106% and 102% and 111%
viability, T/C (compound 0.0316 µM): 96.8% and 96.9% and 93.9%
viability, T/C (compound 0.1 µM): 89.9% and 86.5% and 91.9%
viability, T/C (compound 0.316 µM): 86.2% and 91.9% and 90.9%
viability, T/C (compound 1 µM): 77.5% and 78.8% and 85.9%
IC50 (curve of compound): > 1000 nM

Cn1ncnc1C1c2n[nH]c(=O)c3cc(F)cc(c23)NC1c1ccc(F)cc1 (centres undefined) + Cc1cncc(-c2nc(NCCc3c[nH]c4ccccc34)c3ncn(C(C)C)c3n2)c1
IC50 [1]: > 100 nM
IC50 [2]: > 100 nM
IC50 [3]: > 100 nM
IC50 [4]: > 100 nM
IC50 [5]: > 100 nM
viability, T/C (second compound 0.1 µM, first compound 0.000316 µM): 96%
viability, T/C (second compound 0.1 µM, first compound 0.001 µM): 96.2%
viability, T/C (second compound 0.1 µM, first compound 0.00316 µM): 97.4%
viability, T/C (second compound 0.1 µM, first compound 0.01 µM): 84.8%
viability, T/C [6]: 86.6%
viability, T/C [7]: 85.6%
viability, T/C (second compound 0.316 µM, first compound 0.000316 µM): 97.9%
viability, T/C (second compound 0.316 µM, first compound 0.001 µM): 92.5%
viability, T/C (second compound 0.316 µM, first compound 0.00316 µM): 94.3%
viability, T/C (second compound 0.316 µM, first compound 0.01 µM): 90.6%
viability, T/C [8]: 85.6%
viability, T/C [9]: 86.5%
viability, T/C (second compound 1 µM, first compound 0.000316 µM): 104%
viability, T/C (second compound 1 µM, first compound 0.001 µM): 113%
viability, T/C (second compound 1 µM, first compound 0.00316 µM): 104%
viability, T/C (second compound 1 µM, first compound 0.01 µM): 101%
viability, T/C [10]: 103%
viability, T/C [11]: 94%
viability, T/C (second compound 3.16 µM, first compound 0.000316 µM): 122%
viability, T/C (second compound 3.16 µM, first compound 0.001 µM): 99.5%
viability, T/C (second compound 3.16 µM, first compound 0.00316 µM): 104%
viability, T/C (second compound 3.16 µM, first compound 0.01 µM): 93.7%
viability, T/C [12]: 100%
viability, T/C [13]: 98.2%
viability, T/C (second compound 10 µM, first compound 0.000316 µM): 52.4%
viability, T/C (second compound 10 µM, first compound 0.001 µM): 55.5%
viability, T/C (second compound 10 µM, first compound 0.00316 µM): 62%
viability, T/C (second compound 10 µM, first compound 0.01 µM): 56%
viability, T/C [14]: 47.5%
viability, T/C [15]: 58.3%

Nc1ccccc1NC(=O)c1ccc(CNC(=O)OCc2cccnc2)cc1 + Cc1ccccc1N=Nc1ccc(NC(=O)c2ccnn2C)c(C)c1
IC50 [1]: 2500 nM
IC50 [2]: 3460 nM
IC50 [3]: 2270 nM
IC50 [4]: 1900 nM
IC50 [5]: 3480 nM
viability, T/C [6]: 91.9%
viability, T/C [7]: 83%
viability, T/C (second compound 0.1 µM, first compound 0.316 µM): 79.2%
viability, T/C (second compound 0.1 µM, first compound 1 µM): 73.7%
viability, T/C (second compound 0.1 µM, first compound 3.16 µM): 43.4%
viability, T/C (second compound 0.1 µM, first compound 10 µM): 12.3%
viability, T/C [8]: 91.4%
viability, T/C [9]: 83.5%
viability, T/C (second compound 0.316 µM, first compound 0.316 µM): 69%
viability, T/C (second compound 0.316 µM, first compound 1 µM): 64.9%
viability, T/C (second compound 0.316 µM, first compound 3.16 µM): 62.3%
viability, T/C (second compound 0.316 µM, first compound 10 µM): 14.1%
viability, T/C [10]: 83.8%
viability, T/C [11]: 85.1%
viability, T/C (second compound 1 µM, first compound 0.316 µM): 70.4%
viability, T/C (second compound 1 µM, first compound 1 µM): 58.5%
viability, T/C (second compound 1 µM, first compound 3.16 µM): 50.4%
viability, T/C (second compound 1 µM, first compound 10 µM): 13.9%
viability, T/C [12]: 89.3%
viability, T/C [13]: 84.7%
viability, T/C (second compound 3.16 µM, first compound 0.316 µM): 70.2%
viability, T/C (second compound 3.16 µM, first compound 1 µM): 54.4%
viability, T/C (second compound 3.16 µM, first compound 3.16 µM): 50.5%
viability, T/C (second compound 3.16 µM, first compound 10 µM): 13.3%
viability, T/C [14]: 86.4%
viability, T/C [15]: 81.6%
viability, T/C (second compound 10 µM, first compound 0.316 µM): 71.4%
viability, T/C (second compound 10 µM, first compound 1 µM): 59.6%
viability, T/C (second compound 10 µM, first compound 3.16 µM): 63.1%
viability, T/C (second compound 10 µM, first compound 10 µM): 13.4%
